Patent US4355101A, “Phenylmercaptoazole compounds” (Polaroid Corporation, priority 1981, dated 1982)
Read-outs that look alike come from different tables or passages of the source.

Legend:
[1] = pKa of substituents on the phenyl ring, measured for unblocked phenylmercaptotetrazole compounds; type: physicochemical; details: substituent on phenyl ring of unblocked phenylmercaptotetrazole
Source text: Table I lists the pKa of various substituents on the phenyl ring as measured for unblocked phenylmercaptotetrazole compounds.

[2] = Solubility product of the silver salt; type: physicochemical; details: for Effect of pH / ionization on solubility of the silver salt: pH 7 vs pH 13.5
[3] = Solubility of the silver salts in the presence of excess amounts of their anions; type: physicochemical; details: for Solubility of silver salt (total silver): 4×10^-3 molar in silver
Experimental: The solubilities of the silver salts of PMT and compound VIII in the presence of excess amounts of their anions were measured at pH 7.0 and 13.5. Each solution was 4×10^-3 molar in silver. The results are shown in Table III wherein the solubility data is expressed in μ moles/liter of total silver.

[4] = pH 7; Z.C.H. Tan, Photogr. Sci. Eng. 19, 17 (1975); cited from earlier work
[5] = Molar ratio Compound/Ag 1.25/1, pH 7.0
[6] = Molar ratio Compound/Ag 1.25/1, pH 13.5
[7] = Molar ratio Compound/Ag 1.75/1, pH 7.0
[8] = Molar ratio Compound/Ag 1.75/1, pH 13.5
[9] = Molar ratio Compound/Ag 2.13/1, pH 7.0
[10] = Molar ratio Compound/Ag 2.13/1, pH 13.5
[11] = Molar ratio Compound/Ag 2.5/1, pH 7.0
[12] = Molar ratio Compound/Ag 2.5/1, pH 13.5
[13] = Molar ratio Compound/Ag 4.5/1, pH 7.0
[14] = Molar ratio Compound/Ag 4.5/1, pH 13.5
[15] = Molar ratio Compound/Ag 7.5/1, pH 7.0
[16] = Molar ratio Compound/Ag 7.5/1, pH 13.5

SMILES: O=S(=O)(Nc1ccccc1)c1ccc(-n2nnnc2S)cc1
- pKa [1]: 9.55 ± 0.1

SMILES: Sc1nnnn1-c1ccccc1 [PMT, 1-phenyl-5-mercaptotetrazole]
- Effect of pH / ionization on solubility of the silver salt [2]: relatively unaffected by pH
- Ksp of silver salt ([2]; pH 13.5): 4 × 10^-16
- Solubility of silver salt (total silver) [3, 5]: < 1 μ moles/liter
- Solubility of silver salt (total silver) [3, 6]: 1 μ moles/liter
- Solubility of silver salt (total silver) [3, 7]: < 1 μ moles/liter
- Solubility of silver salt (total silver) [3, 8]: 2 μ moles/liter
- Solubility of silver salt (total silver) [3, 9]: 1 μ moles/liter
- Solubility of silver salt (total silver) [3, 10]: 4 μ moles/liter
- Solubility of silver salt (total silver) [3, 11]: 3 μ moles/liter
- Solubility of silver salt (total silver) [3, 12]: 8 μ moles/liter
- Solubility of silver salt (total silver) [3, 13]: 15 μ moles/liter
- Solubility of silver salt (total silver) [3, 14]: 18 μ moles/liter
- Solubility of silver salt (total silver) [3, 15]: 58 μ moles/liter
- Solubility of silver salt (total silver) [3, 16]: 63 μ moles/liter
- Ksp of silver salt [4]: ~3 × 10^-16

SMILES: NS(=O)(=O)c1ccc(-n2nnnc2S)cc1 [(p) SO2 NH2, 1-(4-sulfonamidophenyl)-5-mercaptotetrazole]
- pKa [1]: 9.95 ± 0.1

SMILES: CNS(=O)(=O)c1ccc(-n2nnnc2S)cc1 [(p) SO2 NHCH3]
- pKa [1]: 11.55 ± 0.1

SMILES: CC(=NO)c1ccc(-n2nnnc2S)cc1 [drawing 14]
- pKa [1]: 11.4

SMILES: CC(=NO)c1ccc(-n2nnnc2S)cc1 [IX]
- Ksp of silver salt ([2]; pH 7): ~ 1 × 10^-16
- Effect of pH / ionization on solubility of the silver salt [2]: increased the solubility of the silver salt of the compound VIII by an order of magnitude
- Ksp of silver salt ([2]; pH 13.5): 2 × 10^-15
- Solubility of silver salt (total silver) [3, 5]: < 1 μ moles/liter
- Solubility of silver salt (total silver) [3, 6]: 19 μ moles/liter
- Solubility of silver salt (total silver) [3, 7]: < 1 μ moles/liter
- Solubility of silver salt (total silver) [3, 8]: 44 μ moles/liter
- Solubility of silver salt (total silver) [3, 9]: < 1 μ moles/liter
- Solubility of silver salt (total silver) [3, 10]: 93 μ moles/liter
- Solubility of silver salt (total silver) [3, 11]: 2 μ moles/liter
- Solubility of silver salt (total silver) [3, 12]: 140 μ moles/liter
- Solubility of silver salt (total silver) [3, 13]: 2 μ moles/liter
- Solubility of silver salt (total silver) [3, 14]: 320 μ moles/liter
- Solubility of silver salt (total silver) [3, 15]: 5 μ moles/liter
- Solubility of silver salt (total silver) [3, 16]: 1400 μ moles/liter
- Silver solvent action ([3]; high pH): weak to moderate silver solvent
- Solubility of silver salt compared with PMT ([3]; neutral solution): even less soluble salt in neutral solution than does PMT

SMILES: Cc1ccc(S(=O)(=O)Nc2ccc(-n3nnnc3S)cc2)cc1
- pKa [1]: 8.8 ± 0.1

SMILES: Oc1ccccc1-n1nnnc1S [(o) OH]
- pKa [1]: 9.5 ± 0.1

SMILES: CS(=O)(=O)Nc1ccc(-n2nnnc2S)cc1 [(p) NHSO2 CH3]
- pKa [1]: 8.65 ± 0.1

SMILES: Oc1ccc(-n2nnnc2S)cc1 [(p) OH, 1-(4-hydroxyphenyl)-5-mercaptotetrazole]
- pKa [1]: 10.1 ± 0.1
